Data from ChEMBL document CHEMBL1130839, “Synthesis and pharmacological activities of 13-dehydro derivatives of primary prostaglandins” (Bioorg Med Chem Lett, 1998).
pEC50, pIC50: −log10 of the molar value.

Columns and labels:
Type in all cases: functional
Cavia porcellus [1] = species on record: Cavia porcellus; test: Compound was tested for contraction of guinea-pig ileum; conditions: read-out: ED50 (the source's name)
Cavia porcellus [2] = species on record: Cavia porcellus; test: Compound was tested for relaxation of guinea-pig trachea precontracted in histamine
Homo sapiens = species on record: Homo sapiens; test: Compound was tested for inhibition of ADP-induced human platelet aggregation
Cavia porcellus [3] = species on record: Cavia porcellus; test: Compound was tested for relaxation of guinea-pig trachea precontracted with histamine
Cavia porcellus [4] = species on record: Cavia porcellus; test: Compound was tested for […] PGE2-induced relaxation of guinea-pig trachea precontracted with carbachol
Rattus norvegicus = species on record: Rattus norvegicus; test: Compound was tested for contraction of rat isolated uterine; conditions: read-out: ED50 (the source's name)

pEC50 (Cavia porcellus [1]) | pIC50 (Cavia porcellus [2]) | pIC50 (Homo sapiens) | pIC50 (Cavia porcellus [3]) | pIC50 (Cavia porcellus [4]) | pEC50 (Rattus norvegicus) | Compound
6.59 | 5.27 | 5.59 | – | – | – | CC/C=C\C[C@H](O)C#C[C@H]1[C@H](O)CC(=O)[C@@H]1C/C=C\CCCC(=O)O
9.64 | – | 5.52 | 5.05 | – | – | CCCCC[C@H](O)C#C[C@H]1[C@H](O)CC(=O)[C@@H]1CCCCCCC(=O)O
9.74 | – | 8.47 | – | 8.59 | – | CCCCC[C@H](O)C#C[C@H]1[C@H](O)CC(=O)[C@@H]1C/C=C\CCCC(=O)O
7.70 | – | – | – | – | 6.00 | CCCCC[C@H](O)C#C[C@@H]1[C@@H](CCCCCCC(=O)O)[C@@H](O)C[C@H]1O
